From patent publication US7645802B2 (Biovail Laboratories International SRL., priority 2005, dated 2010)
Where a name gives a salt, the structure may show the parent alone.

Assays:
rat = conditions: 100 mg/kg i.p., long seizure activity
Rj: Wistar (Han) rats = experiment: EEG trace monitoring and behavioural observations in conscious rats; conditions: rat, in vivo, ip
Experimental: The effects of the two bupropion salt forms hydrochloride and hydrobromide on central nervous system activity after intraperitoneal administration were evaluated by means of EEG trace monitoring in conscious rats. The method which detects electroencephalographic activity in conscious rats follows that described by Dürmüller et al., (2000) Vigilance-Controlled Quantified EEG in Safety Pharmacology, Current Protocols in Pharmacology Unit 10.6. The study was conducted at Porsolt & Partners Pharmacology, Research Laboratory, Z. A. des Suhards—B.P. 9, 53940 Le Genest-Saint-Isle, France.
Substances: The formulation excipient used was physiological saline (Laboratoire Aguettant). […] All substances were stored in a dry, dark, controlled access area and maintained at a controlled ambient temperature of about 20±3° C. The vehicle solutions were stored at about +4° C. The substances were administered in a volume of 5 ml/kg body weight. The doses of bupropion hydrochloride are expressed in mg/kg of salt. […] The substances were dissolved in physiological saline and prepared freshly at each day of experimentation.
Test systems: The rats used were male Rj: Wistar (Han) rats, weighing from about 280 g to 324 g at the time of implantation. They were supplied by Elevage Janvier, 53940 Le Genest-Saint-Isle, France. […] Upon delivery to the laboratory, the animals were housed in groups of 5 animals maximum, in macrolon cages (44×28×19 cm) containing wood litter (Litalabo—SPPS, 95100 Argenteuil, France). The animals had free access to food (Code 113—SAFE, 89290 Augy, France) and tap water. The animal house was maintained under artificial lighting (12 hrs) from 7:00 to 19:00 in a controlled ambient temperature of about 21±3° C. and relative humidity maintained at from about 30% to about 80%. […] Except during the test sessions, the animals had free access to food (Code 113) and tap water. The animals were identified by marking the connector fixed on the animal's head with an indelible pen. Rats were sacrificed at the end of the experiments by lethal injection of pentobarbital (>100 mg/kg i.p.). Animals were not submitted to necropsy. There is no reason to expect that contaminants were present in the feed, water or bedding at levels capable of interfering with the results of the tests. No checks were performed for this particular study.
Electrode implantation procedure: Implantation surgery was carried out under aseptic conditions. Rats, anesthetized with sodium pentobarbital (60 mg/kg i.p., plus supplementary doses of from about 5 mg/kg to about 10 mg/kg to maintain anesthesia until surgery completion) were implanted with 2 surface EEG electrodes, comprised of miniature titanium screws, placed bilaterally over the frontal-parietal cortex and 2 depth electrodes, comprised of twisted platinium-iridium wires, placed stereotaxically into the hippocampus CA3 area (Paxinos and Watson coordinates interaural: AP+5.0 mm, L±2.5 mm, V+7.0 mm). An additional screw, placed over the right occipital cortex, served as ground electrode. The electrodes were connected to small plugs and the whole assembly was secured on the skull with dental acrylate.
Apparatus: For the EEG recording, the animals were placed in rectangular Plexiglas cubicles (30×10×25 cm) mounted on treadmills. Five recording units were run in parallel. A turning commutator was attached above the centre of each cubicle, about 30 cm above walking level. On one side, it was connected via an electrically shielded multicore cable to the animal and on the other side to the signal conditioning system (Coulbourn Model V75-01). The system filters were set for all channels to high pass 1 Hz and low pass 150 Hz, respectively. The amplification levels were kept at from 1000× to 10000×. The EEG signals were acquired and processed on a PC (DELL GX620-2800) installed with a 16 channel 200 kHz/12-bit AD acquisition card (NI PCI-6023E).

[1] = forced degradation of bupropion HBr and HCl in the presence of excipients at 55° C., 55° C./100% RH, 100° C., 105° C. (incl. TGA at 100° C.); type: physicochemical; conditions: TGA experiment at 100° C.
Experimental: Further forced degradation studies were carried out at 55° C., at 55° C. and 100% relative humidity, at 100° C., and at 105° C. on both the HCl and HBr Bupropion salts in the presence of excipients. […] FIG. 53 is a graph showing the loss of each salt over time in a TGA experiment at 100° C.

[2] = forced degradation stability study of bupropion salts in vials, 40 degrees C./75% RH, HPLC assay and impurities
[3] = Solubility and other physical properties, Bupropion HBr vs Bupropion HCl
[4] = comparative forced degradation of bupropion HCl and HBr API salts, closed bottle, 40° C./75% RH; type: physicochemical; conditions: two batches of each API, 10 days
Experimental: These studies were performed in closed bottles in a stability chamber kept at about 40 degrees C. and about 75% relative humidity. At specified times, the material in the bottles was analyzed for the presence of degradation products and % potency (% assay).
The samples were exposed to the above conditions in a closed bottle for few days, and then subjected to HPLC analysis.
The amount of the main degradation products present after treatment were compared with those amounts that were present initially.
The samples were analyzed after 14 and 24 days (study-1) and 10 days (study II), in a quantitative manner by direct treatment of the whole content of the bottle as per the HPLC standard test method (P05.901.10).

[5] = HCl from Erregierre, HBr from Chemi, hydrochloride

CC(NC(C)(C)C)C(=O)c1cccc(Cl)c1.Cl (racemic) [bupropion hydrochloride, (±)-1-(3-chlorophenyl)-2-[(1,1-dimethylethyl)amino]-1-propanone hydrochloride]
NUMBER OF ANIMALS WITH SEIZURE ACTIVITY (rat; 10 rats per group, HBr dose in HCl molar equivalent): 10
DURATION OF INITIAL SEIZURE CORTEX mean ± s.e.m. (rat): 33 ± 3
DURATION OF INITIAL SEIZURE HIPPOCAMPUS mean ± s.e.m. (rat): 25 ± 4
BEHAVIOR Facial clonus (Rj: Wistar (Han) rats; 10 mg/kg): −
BEHAVIOR Forelimb clonus (Rj: Wistar (Han) rats; 10 mg/kg): −
BEHAVIOR Head twitches (Rj: Wistar (Han) rats; 10 mg/kg): −
BEHAVIOR Hyperactivity Sterotypies (Rj: Wistar (Han) rats; 10 mg/kg): −
BEHAVIOR Rearing (Rj: Wistar (Han) rats; 10 mg/kg): −
BEHAVIOR Wholebody clonus (Rj: Wistar (Han) rats; 10 mg/kg): −
EEG ANALYSIS Burst cx (Rj: Wistar (Han) rats; 10 mg/kg): −
EEG ANALYSIS Burst hipp (Rj: Wistar (Han) rats; 10 mg/kg): −
EEG ANALYSIS Complex spike cx (Rj: Wistar (Han) rats; 10 mg/kg): −
EEG ANALYSIS Complex spike hipp (Rj: Wistar (Han) rats; 10 mg/kg): −
EEG ANALYSIS High amplitude fast frequency cx (Rj: Wistar (Han) rats; 10 mg/kg): −
EEG ANALYSIS High amplitude fast frequency hipp (Rj: Wistar (Han) rats; 10 mg/kg): −
EEG ANALYSIS High frequency burst activity hipp (Rj: Wistar (Han) rats; 10 mg/kg): −
EEG ANALYSIS Long seizure activity cx (Rj: Wistar (Han) rats; 10 mg/kg): −
EEG ANALYSIS Long seizure activity hipp (Rj: Wistar (Han) rats; 10 mg/kg): −
EEG ANALYSIS Post ictual activity cx (Rj: Wistar (Han) rats; 10 mg/kg): −
EEG ANALYSIS Post ictual activity hipp (Rj: Wistar (Han) rats; 10 mg/kg): −
EEG ANALYSIS Repetitive isolated spike cx (Rj: Wistar (Han) rats; 10 mg/kg): −
EEG ANALYSIS Repetitive isolated spike hipp (Rj: Wistar (Han) rats; 10 mg/kg): −
EEG ANALYSIS Sharp waves cx (Rj: Wistar (Han) rats; 10 mg/kg): −
EEG ANALYSIS Sharp waves hipp (Rj: Wistar (Han) rats; 10 mg/kg): −
EEG ANALYSIS Short seizure activity cx (Rj: Wistar (Han) rats; 10 mg/kg): −
EEG ANALYSIS Short seizure activity hipp (Rj: Wistar (Han) rats; 10 mg/kg): −
EEG ANALYSIS Spike-and-waves cx (Rj: Wistar (Han) rats; 10 mg/kg): −
EEG ANALYSIS Spike-and-waves hipp (Rj: Wistar (Han) rats; 10 mg/kg): −
BEHAVIOR Facial clonus (Rj: Wistar (Han) rats; 30 mg/kg): −
BEHAVIOR Forelimb clonus (Rj: Wistar (Han) rats; 30 mg/kg): −
BEHAVIOR Head twitches (Rj: Wistar (Han) rats; 30 mg/kg): −
BEHAVIOR Hyperactivity Sterotypies (Rj: Wistar (Han) rats; 30 mg/kg): +
BEHAVIOR Rearing (Rj: Wistar (Han) rats; 30 mg/kg): −
BEHAVIOR Wholebody clonus (Rj: Wistar (Han) rats; 30 mg/kg): −
EEG ANALYSIS Sharp waves cx (Rj: Wistar (Han) rats; 30 mg/kg): −
EEG ANALYSIS Sharp waves hipp (Rj: Wistar (Han) rats; 30 mg/kg): −
EEG ANALYSIS Spike-and-waves cx (Rj: Wistar (Han) rats; 30 mg/kg): −
EEG ANALYSIS Spike-and-waves hipp (Rj: Wistar (Han) rats; 30 mg/kg): −
BEHAVIOR Facial clonus (Rj: Wistar (Han) rats; 60 mg/kg): −
BEHAVIOR Forelimb clonus (Rj: Wistar (Han) rats; 60 mg/kg): −
BEHAVIOR Head twitches (Rj: Wistar (Han) rats; 60 mg/kg): −
BEHAVIOR Hyperactivity Sterotypies (Rj: Wistar (Han) rats; 60 mg/kg): +
BEHAVIOR Rearing (Rj: Wistar (Han) rats; 60 mg/kg): −
BEHAVIOR Wholebody clonus (Rj: Wistar (Han) rats; 60 mg/kg): −
EEG ANALYSIS Sharp waves cx (Rj: Wistar (Han) rats; 60 mg/kg): −
EEG ANALYSIS Sharp waves hipp (Rj: Wistar (Han) rats; 60 mg/kg): −
EEG ANALYSIS Spike-and-waves cx (Rj: Wistar (Han) rats; 60 mg/kg): −
EEG ANALYSIS Spike-and-waves hipp (Rj: Wistar (Han) rats; 60 mg/kg): −
BEHAVIOR Facial clonus (Rj: Wistar (Han) rats; 100 mg/kg): +
EEG ANALYSIS Spike-and-waves cx (Rj: Wistar (Han) rats; 100 mg/kg): −
EEG ANALYSIS Spike-and-waves hipp (Rj: Wistar (Han) rats; 100 mg/kg): −
disproportionation of the salt at elevated temperatures (TGA, loss of API) [1]: disproportionation of the HCl salt occurs with concomitant loss of gaseous HCl
In IPA/EtOH, 3-CBZ: order of impurity content [2]: maleate > HBr > HCl > Fumarate
In IPA/EtOH, 852U77: order of impurity content [2]: fumarate > HBr ≈HCl ≈maleate ≈tosylate
In IPA/EtOH, Total imp.: order of impurity content [2]: fumarate > maleate > HBr > HCl > tosylate
In water, 3-CBZ: order of impurity content [2]: HCl > HBr≈maleate≈fumarate
In water, 852U77: order of impurity content [2]: fumarate > HBr > maleate > HCl
In water, Total imp.: order of impurity content [2]: fumarate > HBr > HCl > tosylate > maleate
order of stability (assay, % potency) ([2]; salt plus excipients, closed vials, 20 days, 40 degrees C./75% RH): HBr>HCl≈tosylate>fumarate>maleate

CC(NC(C)(C)C)C(=O)c1cccc(Cl)c1 (centres unmarked) [Bupropion HCl, bupropion hydrochloride]
solubility ([3]; EtOH): 80 mg/mL
pH (aq. 0.5%) ([3]; HCl from Erregierre, HBr from Chemi): 5.90
PS (Malvern) 10% [3, 5]: 10% 32 μm
PS (Malvern) 50% [3, 5]: 50% 102 μm
PS (Malvern) 90% [3, 5]: 90% 276 μm
moisture content KF [3, 5]: 0.01%
solubility ([3]; IPA): 10 mg/mL
solubility ([3]; Water): 270 mg/mL
assay value, HCl versus HBr [4]: lower than that for the HBr salt
